In brackets after ≈: the same amount, converted by molar mass.
Key:
Proteus mirabilis 18 = assay: Minimal inhibitory concentrations, two-fold agar-plate dilution method; type: cell-based; settings: HI-agar, 37° C., 20 hours
Procedure: (§1) (A) Minimal inhibitory concentrations In vitro antibacterial activity was determined by the two-fold agar-plate dilution method as described below. One loopful of an overnight culture of each test strain in Trypticase-soy broth (10^8 viable cells per ml) was streaked on heart infusion agar (HI-agar) containing graded concentrations of representative test compound, and the minimal inhibitory concentration (MIC) was expressed in terms of μg/ml after incubation at 37° C. for 20 hours.

Proteus vulgaris 2 = assay: as above; type: cell-based; settings: HI-agar, 37° C., 20 hours
Procedure: as §1

[1] = Urinary excretion after oral administration in rats; type: in vivo; settings: rat, urine, 100 mg/kg, 0 to 24 hours, bioassay, read-out: Urinary recovery in 24 hours (%)
Procedure: Urine of rats was collected with a urine collector at 0 to 6, and 6 to 24 hours after oral administration of 100 mg/kg of the test antibiotic. The antibiotic levels in the urine samples were bioassayed with the standard solution prepared with M/15 phosphate buffer (pH 7.0) and the urinary recovery in 24 hours was calculated.

in vivo = settings: rat, po, 100 mg/kg
Procedure: Rats anesthetized with pentobarbital were fixed in supine position, and a polyethylene cannula was inserted into the bile duct. Bile samples were collected at 0 to 3, 3 to 6, and 6 to 24 hours after oral administration of 100 mg/kg of the test antibiotic. The antibiotic levels in the bile samples were bioassayed with the standard solution prepared with M/15 phosphate buffer (pH 7.0) and the biliary recovery in 24 hours were calculated.

## O=C(O)CO/N=C(\C(=O)NC1C(=O)N2C(C(=O)O)=C(CSc3ccc4nnnn4n3)CSC12)c1ncsn1 (stereo not drawn) [Compound .circle.A, 7-[2-Carboxymethoxyimino-2-(1,2,4-thiadiazol-3-yl)acetamido]-3-(tetrazolo[1,5-b]pyridazin-6-yl)thiomethyl-3-cephem-4-carboxylic acid (syn isomer)]
Proteus mirabilis 18
  MIC: 0.05 µg/mL (≈ 0.0864 µM)
Proteus vulgaris 2
  MIC: 0.05 µg/mL (≈ 0.0864 µM)
[1]
  dose excreted at 24 h: 10.6%
In vivo
  dose excreted at 24 h: 12.6%
